The first assay has as its system SARS-CoV-2 Delta USA/MD-HP05647/2021 (Lineage B.1.617.2). As to the kind of experiment: microbe, parasite or virus in culture. The note with it: Severe acute respiratory syndrome coronavirus 2, Vero C1008, 4 h; read-out: Vero E6 Delta CPE/EC50. It counts as cell-based.
With `CC(C)(C)[C@H](NS(=O)(=O)c1ccc(C2CC2)cc1)C(=O)N1C[C@H]2[C@@H]([C@H]1C(=O)N[C@H](C#N)C[C@@H]1CCNC1=O)C2(C)C` [Compound 121], the EC50 was below 4.5 nM.

Regarding `COc1ccc(S(=O)(=O)N[C@H](C(=O)N2C[C@H]3[C@@H]([C@H]2C(=O)N[C@H](C#N)C[C@@H]2CCNC2=O)C3(C)C)C(C)(C)C)cc1` [Compound 101], the EC50 was 0.31 nM.

For the compound `CC(C)(C)[C@H](NS(=O)(=O)c1cc2ccccc2s1)C(=O)N1C[C@H]2[C@@H]([C@H]1C(=O)N[C@H](C#N)C[C@@H]1CCNC1=O)C2(C)C` [Compound 111], the EC50 was below 4.5 nM.

For `CC(C)(C)[C@H](NC(=S)NC1CC1)C(=O)N1C[C@H]2[C@@H]([C@H]1C(=O)N[C@H](C#N)C[C@@H]1CCNC1=O)C2(C)C` [Compound 76], the EC50 was found to be 834 nM.

For `CC(C)[C@H]1CC[C@H](C)C[C@@H]1OCC(=O)N[C@H](C(=O)N1C[C@H]2[C@@H]([C@H]1C(=O)N[C@H](C#N)C[C@@H]1CCNC1=O)C2(C)C)C(C)(C)C` [Compound 110], the EC50 came to 2020 nM.

`CCNC(=S)N[C@H](C(=O)N1C[C@H]2[C@@H]([C@H]1C(=O)N[C@H](C#N)C[C@@H]1CCNC1=O)C2(C)C)C(C)(C)C` [Compound 72]: the EC50 worked out at 261 nM.

As to `CC(C)(C)[C@H](NC(=O)Cc1ccc2c(c1)CCC2)C(=O)N1C[C@H]2[C@@H]([C@H]1C(=O)N[C@H](C#N)C[C@@H]1CCNC1=O)C2(C)C` [Compound 82], the EC50 is 9.52 nM.

For `CC(C)(C)[C@H](NC(=O)C12CC(F)(C1)C2)C(=O)N1C[C@H]2[C@@H]([C@H]1C(=O)N[C@H](C#N)C[C@@H]1CCNC1=O)C2(C)C` [Compound 34], the EC50 was 275 nM.

`CCCc1ccc(S(=O)(=O)N[C@H](C(=O)N2C[C@H]3[C@@H]([C@H]2C(=O)N[C@H](C#N)C[C@@H]2CCNC2=O)C3(C)C)C(C)(C)C)s1` [Compound 171]: the EC50 stood at 80.8 nM.

With `CC(C)(C)[C@H](NS(=O)(=O)c1sccc1Cl)C(=O)N1C[C@H]2[C@@H]([C@H]1C(=O)N[C@H](C#N)C[C@@H]1CCNC1=O)C2(C)C` [Compound 114], the EC50 was found to be 16.4 nM.

Regarding `Cc1csc(S(=O)(=O)N[C@H](C(=O)N2C[C@H]3[C@@H]([C@H]2C(=O)N[C@H](C#N)C[C@@H]2CCNC2=O)C3(C)C)C(C)(C)C)c1` [Compound 112], the EC50 was found to be 63.4 nM.

`CC(C)(C)[C@H](NC(=O)C12CC(C1)C2)C(=O)N1C[C@H]2[C@@H]([C@H]1C(=O)N[C@H](C#N)C[C@@H]1CCNC1=O)C2(C)C` [Compound 20]: the EC50 is 377 nM.

In the case of `CC(C)(C)[C@H](NS(=O)(=O)c1ccc(F)cc1)C(=O)N1C[C@H]2[C@@H]([C@H]1C(=O)N[C@H](C#N)C[C@@H]1CCNC1=O)C2(C)C` [Compound 53, (1R,2S,5S)—N—((S)-1-cyano-2-((S)-2-oxopyrrolidin-3-yl)ethyl)-3-((S)-2-((4-fluorophenyl)sulfonamido)-3,3-dimethylbutanoyl)-6,6-dimethyl-3-azabicyclo[3.1.0]hexane-2-carboxamide], the EC50 was 14.9 nM.

In the case of `CC(C)(C)[C@H](NS(=O)(=O)c1cccnc1)C(=O)N1C[C@H]2[C@@H]([C@H]1C(=O)N[C@H](C#N)C[C@@H]1CCNC1=O)C2(C)C` [Compound 93], the EC50 is 372 nM.

Regarding `CNC(=S)N[C@H](C(=O)N1C[C@H]2[C@@H]([C@H]1C(=O)N[C@H](C#N)C[C@@H]1CCNC1=O)C2(C)C)C(C)(C)C` [Compound 35], the EC50 is 77.9 nM.

As to `CC(C)(C)[C@H](NS(=O)(=O)c1ccns1)C(=O)N1C[C@H]2[C@@H]([C@H]1C(=O)N[C@H](C#N)C[C@@H]1CCNC1=O)C2(C)C` [Compound 122], the EC50 came out at 180 nM.

As for `CC(C)(C)[C@H](NC(=O)CS(C)(=O)=O)C(=O)N1C[C@H]2[C@@H]([C@H]1C(=O)N[C@H](C#N)C[C@@H]1CCNC1=O)C2(C)C` [Compound 64], the EC50 was 1330 nM.

As for `CC(C)(C)[C@H](NC(=O)c1ccc2c(c1)CCC2)C(=O)N1C[C@H]2[C@@H]([C@H]1C(=O)N[C@H](C#N)C[C@@H]1CCNC1=O)C2(C)C` [Compound 120], the EC50 is 8000 nM.

As to `Cc1cc(S(=O)(=O)N[C@H](C(=O)N2C[C@H]3[C@@H]([C@H]2C(=O)N[C@H](C#N)C[C@@H]2CCNC2=O)C3(C)C)C(C)(C)C)sc1Cl` [Compound 168], the EC50 was determined as 21.8 nM.

With `CC(C)(C)[C@H](NC(=O)CC#N)C(=O)N1C[C@H]2[C@@H]([C@H]1C(=O)N[C@H](C#N)C[C@@H]1CCNC1=O)C2(C)C` [Compound 33], the EC50 amounted to 940 nM.

In the case of `CC(C)(C)[C@H](NS(=O)(=O)c1cccs1)C(=O)N1C[C@H]2[C@@H]([C@H]1C(=O)N[C@H](C#N)C[C@@H]1CCNC1=O)C2(C)C` [Compound 100], the EC50 was 36.8 nM.

In the case of `CC(C)(C)[C@H](NS(=O)(=O)c1ccc(F)s1)C(=O)N1C[C@H]2[C@@H]([C@H]1C(=O)N[C@H](C#N)C[C@@H]1CCNC1=O)C2(C)C` [Compound 113], the EC50 is 16.6 nM.

In the case of `CC(C)(C)[C@H](NS(=O)(=O)c1ccc2ccccc2c1)C(=O)N1C[C@H]2[C@@H]([C@H]1C(=O)N[C@H](C#N)C[C@@H]1CCNC1=O)C2(C)C` [Compound 102], the EC50 was below 4.5 nM.

For the compound `CC(C)(C)[C@H](NC(=O)C(F)(F)C(F)(F)C(F)(F)F)C(=O)N1C[C@H]2[C@@H]([C@H]1C(=O)N[C@H](C#N)C[C@@H]1CCNC1=O)C2(C)C` [Compound 133], the EC50 is 437 nM.

In the case of `CC(C)(C)[C@H](NS(=O)(=O)c1ccc(F)c(F)c1)C(=O)N1C[C@H]2[C@@H]([C@H]1C(=O)N[C@H](C#N)C[C@@H]1CCNC1=O)C2(C)C` [Compound 99], the EC50 turned out to be 22.2 nM.

With `CC1(C)[C@@H]2[C@@H](C(=O)N[C@H](C#N)C[C@@H]3CCNC3=O)N(C(=O)[C@@H](NC(=O)C(F)(F)F)C34CC(C3)C4)C[C@@H]21` [Compound 50], the EC50 worked out at 571 nM.

With `CC(C)(C)[C@H](NC(=O)C1(C(F)(F)F)CC1)C(=O)N1C[C@H]2[C@@H]([C@H]1C(=O)N[C@H](C#N)C[C@@H]1CCNC1=O)C2(C)C` [Compound 151], the EC50 is 1630 nM.

Turning to `CC(C)(C)[C@H](NS(=O)(=O)c1ccc2c(c1)CCO2)C(=O)N1C[C@H]2[C@@H]([C@H]1C(=O)N[C@H](C#N)C[C@@H]1CCNC1=O)C2(C)C` [Compound 83], the EC50 turned out to be 20.4 nM.

For the compound `CC(C)(C)[C@H](NS(=O)(=O)N1CCOCC1)C(=O)N1C[C@H]2[C@@H]([C@H]1C(=O)N[C@H](C#N)C[C@@H]1CCNC1=O)C2(C)C` [Compound 49], the EC50 came to 1580 nM.

As for `CN(C)C(=S)N[C@H](C(=O)N1C[C@H]2[C@@H]([C@H]1C(=O)N[C@H](C#N)C[C@@H]1CCNC1=O)C2(C)C)C(C)(C)C` [Compound 77], the EC50 was 1540 nM.

`CC(C)(C)[C@H](NC(=O)c1cnc2[nH]ccc2c1)C(=O)N1C[C@H]2[C@@H]([C@H]1C(=O)N[C@H](C#N)C[C@@H]1CCNC1=O)C2(C)C` [Compound 32]: the EC50 came to 101000 nM.

Still in this assay, the particulars now being: read-out: Vero E6 Delta CPE/EC50.
As to `CC(C)(C)[C@H](NC(=O)C12CC(C1)C2)C(=O)N1C[C@H]2[C@@H]([C@H]1C(=O)N[C@H](C#N)C[C@@H]1CCNC1=O)C2(C)C` [Compound 20], the EC50 stood at 392 nM.

For the compound `CC(C)(C)[C@H](NS(=O)(=O)c1ccc(F)cc1)C(=O)N1C[C@H]2[C@@H]([C@H]1C(=O)N[C@H](C#N)C[C@@H]1CCNC1=O)C2(C)C` [Compound 53, (1R,2S,5S)—N—((S)-1-cyano-2-((S)-2-oxopyrrolidin-3-yl)ethyl)-3-((S)-2-((4-fluorophenyl)sulfonamido)-3,3-dimethylbutanoyl)-6,6-dimethyl-3-azabicyclo[3.1.0]hexane-2-carboxamide], the EC50 was 20.4 nM.

As for `CNC(=S)N[C@H](C(=O)N1C[C@H]2[C@@H]([C@H]1C(=O)N[C@H](C#N)C[C@@H]1CCNC1=O)C2(C)C)C(C)(C)C` [Compound 35], the EC50 was 148 nM.

Source of the values: patent US11760722B2 (priority 2022, dated 2023).
